Laboratory results reported in ChEMBL document CHEMBL1148794, “Structure-activity relationship of a series of inhibitors of monoacylglycerol hydrolysis--comparison with effects upon fatty acid amide hydrolase” (J Med Chem, 2007).

How the values were obtained:
[1] = biological target: T1, Monoglyceride lipase (Rattus norvegicus) (UniProt Q8R431); assay: (§1) Inhibition of MGL in rat cerebellum cytosolic fractions assessed as [3H]2-oleoylglycerol hydrolysis; assay type: tissue-based
T1 sequence (whole entry): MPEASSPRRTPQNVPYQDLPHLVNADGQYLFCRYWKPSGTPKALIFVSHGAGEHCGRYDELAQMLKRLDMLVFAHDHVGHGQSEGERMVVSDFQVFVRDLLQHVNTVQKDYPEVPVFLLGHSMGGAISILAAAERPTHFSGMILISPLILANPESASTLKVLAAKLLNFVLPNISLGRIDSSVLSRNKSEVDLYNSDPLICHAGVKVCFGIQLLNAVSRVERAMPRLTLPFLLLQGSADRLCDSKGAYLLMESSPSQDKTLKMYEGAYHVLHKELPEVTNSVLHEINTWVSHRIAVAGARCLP

Monoglyceride lipase [2] = biological target: T2, Monoglyceride lipase (Rattus norvegicus, UniProt Q8R431); assay: as §1; assay type: tissue-based
T2 sequence (Q8R431 whole entry): T1 sequence (whole entry)

[3] = biological target: T1, Monoglyceride lipase (Rattus norvegicus); assay: (§2) Inhibition of MGL in rat cerebellum membrane fractions assessed as [3H]2-oleoylglycerol hydrolysis; assay type: cell membranes
[4] = biological target: T1, Monoglyceride lipase (Rattus norvegicus); assay: Inhibition of MGL in rat cerebellum cytosolic fractions assessed as [3H]2-oleoylglycerol hydrolysis at 100 uM; assay type: tissue-based
[5] = biological target: T1, Monoglyceride lipase (Rattus norvegicus); assay: Inhibition of MGL in rat cerebellum membrane fractions assessed as [3H]2-oleoylglycerol hydrolysis at 100 uM; assay type: cell membranes
[6] = biological target: T3, Fatty-acid amide hydrolase 1 (Rattus norvegicus) (UniProt P97612); assay: (§3) Inhibition of FAAH in rat cerebellum membranes assessed as [3H]anandamide hydrolysis; assay type: cell membranes; conditions: Membrane
T3 sequence (whole entry): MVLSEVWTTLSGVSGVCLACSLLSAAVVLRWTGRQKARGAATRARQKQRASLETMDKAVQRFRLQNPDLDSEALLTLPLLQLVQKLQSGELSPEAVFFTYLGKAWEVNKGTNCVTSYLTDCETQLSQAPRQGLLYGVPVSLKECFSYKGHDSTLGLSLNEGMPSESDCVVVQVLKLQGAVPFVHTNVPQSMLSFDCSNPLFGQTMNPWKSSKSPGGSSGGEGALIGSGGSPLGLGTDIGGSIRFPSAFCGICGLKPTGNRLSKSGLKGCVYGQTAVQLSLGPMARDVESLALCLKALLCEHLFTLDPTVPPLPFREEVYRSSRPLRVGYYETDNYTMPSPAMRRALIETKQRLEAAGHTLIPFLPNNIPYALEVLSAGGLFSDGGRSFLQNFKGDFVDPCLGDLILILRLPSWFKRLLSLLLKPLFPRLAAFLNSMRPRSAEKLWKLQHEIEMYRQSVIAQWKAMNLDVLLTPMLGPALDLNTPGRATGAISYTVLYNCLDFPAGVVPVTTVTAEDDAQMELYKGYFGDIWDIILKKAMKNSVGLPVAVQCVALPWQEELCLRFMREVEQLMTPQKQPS

[7] = biological target: T4, Fatty-acid amide hydrolase 1 (Rattus norvegicus, UniProt P97612); assay: as §3; assay type: cell membranes, Membrane
T4 sequence (P97612 whole entry): T3 sequence (whole entry)

[8] = biological target: T3, Fatty-acid amide hydrolase 1 (Rattus norvegicus); assay: Inhibition of FAAH in rat cerebellum membranes assessed as [3H]anandamide hydrolysis at 100 uM; assay type: cell membranes; conditions: Membrane
Monoglyceride lipase [9] = biological target: T2, Monoglyceride lipase; assay: as §2; assay type: cell membranes

## CCCCC/C=C\C/C=C\C/C=C\C/C=C\CCCC(=O)OC1CCOCC1
[1]
  pI50 (-log I50, M): 4.5
Monoglyceride lipase [2]
  IC50: 30 µM
[3]
  Log I50: < 4
[4]
  inhibition: 62%
[5]
  inhibition: 33%
[6]
  pI50 (-log10 of IC50 in M): 5.3
[7]
  IC50: 5.3 µM
[8]
  inhibition: 63%

## CCCCC/C=C\C/C=C\C/C=C\C/C=C\CCCC(=O)OCc1ccc2c(c1)OCO2
[1]
  pI50 (-log I50, M): 4.35
Monoglyceride lipase [2]
  IC50: 45 µM
[3]
  Log I50: < 4
[5]
  inhibition: 3%
[6]
  pI50 (-log10 of IC50 in M): 4
[7]
  IC50: 91 µM

## CCCCC/C=C\C/C=C\C/C=C\C/C=C\CCCC(=O)OC[C@@H]1COC(C)(C)O1
[1]
  pI50 (-log I50, M): < 4
[3]
  Log I50: < 4
[4]
  inhibition: 46%
[5]
  inhibition: 38%
[6]
  pI50 (-log10 of IC50 in M): 4.76
[7]
  IC50: 17 µM

## CCCCC/C=C\C/C=C\C/C=C\C/C=C\CCCC(=O)OC[C@H]1CO1
[1]
  pI50 (-log I50, M): 5.2
Monoglyceride lipase [2]
  IC50: 6.3 µM
[3]
  Log I50: < 4
[7]
  IC50: 6 µM

## CCCCC/C=C\C/C=C\C/C=C\C/C=C\CCCC(=O)OC[C@H]1COC(C)(C)O1
[1]
  pI50 (-log I50, M): 4.22
Monoglyceride lipase [2]
  IC50: 60 µM
[3]
  Log I50: < 4
[5]
  inhibition: 34%
[6]
  pI50 (-log10 of IC50 in M): 4.55
[7]
  IC50: 28 µM

## CCCCC/C=C\C/C=C\C/C=C\C/C=C\CCCC(=O)NC[C@@H]1CCCO1
[1]
  pI50 (-log I50, M): 5.5
Monoglyceride lipase [2]
  IC50: 3.5 µM
[3]
  Log I50: 4.1
Monoglyceride lipase [9]
  IC50: 70 µM
[4]
  inhibition: 59%
[6]
  pI50 (-log10 of IC50 in M): 4.16
[7]
  IC50: 69 µM

## CCCCC/C=C\C/C=C\C/C=C\C/C=C\CCCC(=O)NCC1CCCO1 (stereo unspecified)
[1]
  pI50 (-log I50, M): 4.47
Monoglyceride lipase [2]
  IC50: 34 µM
[3]
  Log I50: < 4
[5]
  inhibition: 44%
[6]
  pI50 (-log10 of IC50 in M): 4.25
[7]
  IC50: 56 µM

## CCCCC/C=C\C/C=C\C/C=C\C/C=C\CCCC(=O)OCC1CCCO1 (stereo unspecified)
[1]
  pI50 (-log I50, M): 4.67
Monoglyceride lipase [2]
  IC50: 21 µM
[3]
  Log I50: 4.1
Monoglyceride lipase [9]
  IC50: 75 µM
[6]
  pI50 (-log10 of IC50 in M): 4.48
[7]
  IC50: 33 µM

## CCCCC/C=C\C/C=C\C/C=C\C/C=C\CCCC(=O)OCC1CCOC1 (stereo unspecified)
[1]
  pI50 (-log I50, M): 4.37
Monoglyceride lipase [2]
  IC50: 43 µM
[3]
  Log I50: < 4
[5]
  inhibition: 46%
[6]
  pI50 (-log10 of IC50 in M): 4.98
[7]
  IC50: 11 µM
[8]
  inhibition: 78%

## CCCCC/C=C\C/C=C\C/C=C\C/C=C\CCCC(=O)NC[C@H]1CCCO1
[1]
  pI50 (-log I50, M): 4.59
Monoglyceride lipase [2]
  IC50: 25 µM
[3]
  Log I50: 4.09
Monoglyceride lipase [9]
  IC50: 81 µM
[6]
  pI50 (-log10 of IC50 in M): 4.01
[7]
  IC50: 99 µM

## CCCCC/C=C\C/C=C\C/C=C\C/C=C\CCCC(=O)OC[C@@H]1CO1
[1]
  pI50 (-log I50, M): 5.1
Monoglyceride lipase [2]
  IC50: 8 µM
[3]
  Log I50: < 4
[7]
  IC50: 12 µM

## CCCCC/C=C\C/C=C\C/C=C\C/C=C\CCCC(=O)OCCC1OCC(C)(C)CO1
[1]
  pI50 (-log I50, M): 4.57
Monoglyceride lipase [2]
  IC50: 27 µM
[3]
  Log I50: 4
Monoglyceride lipase [9]
  IC50: 99 µM
[6]
  pI50 (-log10 of IC50 in M): 4.68
[7]
  IC50: 21 µM

## CCCCC/C=C\C/C=C\C/C=C\C/C=C\CCCC(=O)OCC1COC(C)(C)O1 (racemic)
[1]
  pI50 (-log I50, M): 4.3
Monoglyceride lipase [2]
  IC50: 45 µM
[3]
  Log I50: 4
Monoglyceride lipase [9]
  IC50: 95 µM
[6]
  pI50 (-log10 of IC50 in M): 4
[7]
  IC50: 98 µM

## CCCCC/C=C\C/C=C\C/C=C\C/C=C\CCCC(=O)OCC1CCCCO1 (racemic)
[1]
  pI50 (-log I50, M): 5.26
Monoglyceride lipase [2]
  IC50: 5.6 µM
[3]
  Log I50: 4.58
Monoglyceride lipase [9]
  IC50: 26 µM
[6]
  pI50 (-log10 of IC50 in M): 4.3
[7]
  IC50: 51 µM

## CCCCC/C=C\C/C=C\CCCCCCCC(=O)OCC1CO1 (racemic)
[5]
  inhibition: 18%

## CCCCCCCC/C=C\CCCCCCCC(=O)OCC1CO1 (racemic)
[1]
  pI50 (-log I50, M): < 4
[3]
  Log I50: < 4
[4]
  inhibition: 6%
[5]
  inhibition: 8%
[6]
  pI50 (-log10 of IC50 in M): 4.96
[7]
  IC50: 11 µM
